Experimental data: ChEMBL document CHEMBL1201862, “PubChem BioAssay data set” (2004)
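Following 48 hours of exposure in 96-well plates, responses at five concentrations were used to interpolate endpoints linearly. Abbreviation: GI50, concentration required for 50% inhibition of growth.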 Activity calls are given as the source filed them. Cut-off read from the data, not from the text of the source: active = GI50 up to about 1.1 µM and inactive = higher.

What was measured:
Experiment in all cases: NCI-60 cell line screen, 48 h
T47D = test system: T47D
XF498 = test system: XF498
M19-MEL = test system: M19-MEL
DMS-273 = test system: DMS-273
DLD-1 = test system: DLD-1
KM-20L2 = test system: KM-20L2
HOP-18 = test system: HOP-18
RXF 631 = test system: RXF 631
LXFL 529 = test system: LXFL 529

SMILES: COc1ccc2c(c1)CC[C@@H]1[C@@H]2CC[C@]2(C)C(=O)/C(=C/c3ccc(O)c(OC)c3)C[C@@H]12
- GI50 (T47D): 96.6 µM (inactive)

SMILES: COC(=O)C(C/C=C(\C)c1ccccc1)C(C)=O (stereo unspecified)
- GI50 (XF498): > 80.9 µM (inactive)
- GI50 (M19-MEL): 59.8 µM (inactive)
- GI50 (DMS-273): > 83.9 µM (inactive)
- GI50 (DLD-1): 89.5 µM (inactive)
- GI50 (KM-20L2): > 100 µM (inactive)
- GI50 (HOP-18): > 100 µM (inactive)

SMILES: Cc1ccccc1CN1CC2=C(CCN(Cc3ccccc3)C2=O)N2CCN=C12
- GI50 (T47D): 4.8 µM (inactive)

SMILES: CC(=O)c1ccc(OCC(O)CO)cc1 (stereo unspecified)
- GI50 (RXF 631): > 100 µM (inactive)
- GI50 (M19-MEL): > 100 µM (inactive)
- GI50 (DMS-273): > 100 µM (inactive)
- GI50 (DLD-1): 45.8 µM (inactive)
- GI50 (KM-20L2): > 100 µM (inactive)
- GI50 (LXFL 529): 51.8 µM (inactive)
- GI50 (HOP-18): > 100 µM (inactive)

SMILES: Cc1nc2c(n1-c1ccccc1)C(=O)c1ccccc1C2=O
- GI50 (M19-MEL): 17.9 µM (inactive)
- GI50 (DMS-273): 39.4 µM (inactive)
- GI50 (DLD-1): 48.5 µM (inactive)

SMILES: COc1cc(C2C(Cl)C(=O)N2NC(=O)c2ccc(NC(C)=O)cc2)cc(Br)c1O (stereo unspecified)
- GI50 (M19-MEL): > 100 µM (inactive)
- GI50 (DLD-1): > 100 µM (inactive)
- GI50 (LXFL 529): > 100 µM (inactive)
- GI50 (HOP-18): > 100 µM (inactive)

SMILES: CCOC(=O)C12CCC(=O)C=C1[C@@H](C)C(=O)CC2 (stereo partly specified)
- GI50 (XF498): > 100 µM (inactive)
- GI50 (M19-MEL): > 100 µM (inactive)
- GI50 (DMS-273): > 100 µM (inactive)
- GI50 (DLD-1): > 100 µM (inactive)
- GI50 (KM-20L2): > 100 µM (inactive)
- GI50 (LXFL 529): > 100 µM (inactive)

SMILES: [O-]/[N+](=N/c1ncc(-c2ccccc2)cn1)c1ncc(-c2ccccc2)cn1
- GI50 (T47D): > 79.8 µM (inactive)

SMILES: CCOc1ccccc1NC(=O)CCc1nnc(S)[nH]1
- GI50 (RXF 631): > 100 µM (inactive)
- GI50 (M19-MEL): > 100 µM (inactive)
- GI50 (DLD-1): > 100 µM (inactive)
- GI50 (LXFL 529): > 100 µM (inactive)
- GI50 (HOP-18): > 100 µM (inactive)

SMILES: CCCCC1=NNC(=O)C1
- GI50 (T47D): > 100 µM (inactive)

SMILES: CC1C=CN(N(C)C)C2=C1C(=O)c1cnccc1C2=O (stereo unspecified)
- GI50 (T47D): 1.83 µM (inactive)

SMILES: O=C(Nc1cccc(O)c1)C(=O)C1C(=O)NC(=S)NC1=O
- GI50 (XF498): > 100 µM (inactive)
- GI50 (M19-MEL): > 100 µM (inactive)
- GI50 (DMS-273): > 100 µM (inactive)
- GI50 (DLD-1): > 100 µM (inactive)
- GI50 (KM-20L2): > 100 µM (inactive)
- GI50 (LXFL 529): > 100 µM (inactive)
- GI50 (HOP-18): > 100 µM (inactive)

SMILES: CCCC(C(=O)Nc1cccc2nc[nH]c12)C(=O)OCC (stereo unspecified)
- GI50 (T47D): > 100 µM (inactive)

SMILES: Cc1ccc(NC(=O)C2C(=O)N(c3ccc(C)c(C)c3)C(=O)/C2=N\NC(N)=O)cc1C (stereo unspecified)
- GI50 (XF498): > 100 µM (inactive)
- GI50 (M19-MEL): > 100 µM (inactive)
- GI50 (DLD-1): > 100 µM (inactive)
- GI50 (KM-20L2): > 100 µM (inactive)
- GI50 (LXFL 529): 59.7 µM (inactive)
- GI50 (HOP-18): 7.85 µM (inactive)

SMILES: Cc1ccc(-c2n[nH]c(=O)n2N2C(=O)c3ccccc3C2=O)cc1
- GI50 (T47D): 68.9 µM (inactive)

SMILES: CNC(=O)N(CCC#N)CCN(C(=O)NC)c1ccccc1
- GI50 (T47D): > 100 µM (inactive)

SMILES: O=C1c2cc3c(cc2CC12Cc1ccc4c(c1C2=O)CCC4)CCC3 (stereo unspecified)
- GI50 (T47D): > 100 µM (inactive)

SMILES: COc1ccc(C(=O)N=C2N(c3ccccc3)C(=N/c3ccccc3)/C(=N\c3ccccc3)N2c2ccccc2)cc1
- GI50 (T47D): > 58.6 µM (inactive)

SMILES: CN(C)/C=C/c1nnnn1-c1ccc(I)cc1
- GI50 (T47D): 9.44 µM (inactive)

SMILES: O=C(Nc1ccccc1)N1CC(CN2CCN(c3ccccc3)CC2)OC1=O (stereo unspecified)
- GI50 (T47D): > 100 µM (inactive)

SMILES: NC(CO)C(=O)NCC(=O)O (stereo unspecified)
- GI50 (T47D): > 100 µM (inactive)

SMILES: O=C(O)CC(O)(C(=O)O)C(O)C(=O)O (stereo unspecified)
- GI50 (T47D): > 1000 µM (inactive)

SMILES: O=c1c2cccnc2[nH]c2ccc3cn[nH]c3c12
- GI50 (T47D): > 10 µM (inactive)

SMILES: CC(CC(C)[C@H]1CCC2[C@H]3C(CC[C@@]21C)[C@@]1(C)CCC(O)C[C@H]1C[C@@H]3O)C(=O)O (stereo partly specified)
- GI50 (T47D): > 100 µM (inactive)

SMILES: CN1CCCOC(c2ccc([N+](=O)[O-])cc2)O1 (stereo unspecified)
- GI50 (T47D): > 100 µM (inactive)

SMILES: CCOC(=O)c1sc2nc(SC)nc3c2c1NCN3C
- GI50 (T47D): 6.79 µM (inactive)

SMILES: CS/C1=C(\c2ccc(C)cc2)N(c2ccccc2)C(=O)C(=O)N(c2ccccc2)/C(c2ccc(C)cc2)=C(/SC)SS1
- GI50 (T47D): > 100 µM (inactive)

SMILES: O=NN(CCF)C(=O)NC1CC2CCC1C2 (stereo unspecified)
- GI50 (XF498): < 0.01 µM (active)
- GI50 (M19-MEL): > 100 µM (inactive)
- GI50 (DMS-273): > 100 µM (inactive)
- GI50 (DLD-1): > 87.7 µM (inactive)
- GI50 (KM-20L2): > 100 µM (inactive)
- GI50 (HOP-18): > 100 µM (inactive)

SMILES: O=C(O)CCS/C(=C\C(SCCC(=O)O)c1ccc(Cl)cc1)c1ccc(Cl)cc1 (stereo unspecified)
- GI50 (T47D): 41.9 µM (inactive)

SMILES: CCCCCC(/C=C/[C@@H]1CC(=O)C[C@H]1O[Si](C)(C)C(C)(C)C)OCOCCOC (stereo partly specified)
- GI50 (T47D): 11.1 µM (inactive)

SMILES: COC(=O)CNCC1OC2OC(C)(C)OC2C1N=[N+]=[N-] (stereo unspecified)
- GI50 (T47D): > 100 µM (inactive)

SMILES: CC(CC[C@@]1(C)C(=O)CCC2O[C@]21C)[C@H]1C[C@@H](c2ccoc2)OC1=O (stereo partly specified)
- GI50 (T47D): > 100 µM (inactive)

SMILES: O=C(O)CNCCc1ccccc1
- GI50 (T47D): > 100 µM (inactive)

SMILES: COC(=O)C(CC(=O)c1cc2c(cc1I)OCO2)Cc1cc(OC)c(OC)c(OC)c1I (stereo unspecified)
- GI50 (XF498): > 100 µM (inactive)
- GI50 (M19-MEL): > 100 µM (inactive)
- GI50 (DMS-273): > 100 µM (inactive)
- GI50 (DLD-1): > 100 µM (inactive)
- GI50 (KM-20L2): > 100 µM (inactive)
- GI50 (LXFL 529): 12.2 µM (inactive)
- GI50 (HOP-18): > 100 µM (inactive)

SMILES: c1ccc2c(c1)[nH]c1c2cc[n+]2cc3c(cc12)CCCC3
- GI50 (T47D): 1.66 µM (inactive)

SMILES: CSc1c(C#N)c(=O)n(N)c2[nH]nc(C)c12
- GI50 (T47D): > 100 µM (inactive)

SMILES: CSc1nncc2[nH]c(C)nc12
- GI50 (T47D): > 100 µM (inactive)

SMILES: COc1ccc(C[C@@H]2OC3(C=CC(=O)CC3Sc3ccccc3)O[C@H]2Cc2ccc(OC)cc2)cc1 (stereo partly specified)
- GI50 (T47D): 0.813 µM (active)

SMILES: Cc1ccc(C)c(NC(=O)C(=O)CC(=O)C2CCOC2=O)c1 (stereo unspecified)
- GI50 (XF498): > 100 µM (inactive)
- GI50 (M19-MEL): > 100 µM (inactive)
- GI50 (DMS-273): > 100 µM (inactive)
- GI50 (DLD-1): > 100 µM (inactive)
- GI50 (KM-20L2): > 100 µM (inactive)
- GI50 (LXFL 529): > 100 µM (inactive)
